Type in all cases: functional
Assay [1] concerns Escherichia coli. Nature of the assay: Antibacterial activity against Escherichia coli assessed as reduction in microbial growth after 24 hrs by two-fold dilution method.
Assay [2] deals with Staphylococcus aureus. Nature of the assay: Antibacterial activity against Staphylococcus aureus assessed as reduction in microbial growth after 24 hrs by two-fold dilution method.
For assay [3], the system named is Candida albicans. Nature of the assay: Antifungal activity against Candida albicans assessed as reduction in microbial growth after 3 days by two-fold dilution method.
Assay [4] deals with Bacillus subtilis. In words: Antibacterial activity against Bacillus subtilis assessed as reduction in microbial growth after 24 hrs by two-fold dilution method.

For orientation: MIC means the lowest concentration that inhibits growth of the organism. With `C[C@@]12CC=C(CO)[C@@H](C1)[C@]1(C)CCC[C@]21C`, the MIC is 64 µg/mL in assay [1]; 32 µg/mL in assay [2]; > 256 µg/mL in assay [3] (72 h, time 3 day); 32 µg/mL in assay [4].
NYSTATIN: the MIC in assay [3] (time 3.0 day) is 1 µg/mL.
`C[C@H](C[C@@H](O)[C@H](O)C(C)(C)O)[C@H]1CC[C@@](C)(O)[C@@H](O)C1`: the MIC in assay [1] was 64 µg/mL; in assay [2], 64 µg/mL; in assay [3] (72 h, time 3 day), > 256 µg/mL; in assay [4] it was 64 µg/mL.
Take `C[C@@]12CC[C@@](O)(CO)[C@@H](C1)[C@@]1(C)CCC[C@@]21C`: the MIC in assay [1] was 64 µg/mL; in assay [2] it was 64 µg/mL; in assay [3] (72 h, time 3 day), > 256 µg/mL; in assay [4], 64 µg/mL.
Turning to `C[C@@]12CC[C@@](O)(CO)[C@@H](C1)[C@]1(C)CCC[C@]21C`, the MIC in assay [1] is 64 µg/mL; in assay [2], 64 µg/mL; in assay [3] (72 h, time 3 day), > 256 µg/mL; in assay [4] it was 32 µg/mL.
Regarding `COc1cc2c(c(O)c1OC)CO[C@](C)(O)C2=O`, the MIC was > 256 µg/mL in assay [1]; > 256 µg/mL in assay [2]; 32 µg/mL in assay [3] (72 h, time 3 day); > 256 µg/mL in assay [4].
On to `C[C@@]12CC[C@@](O)(CO)[C@@H](C1)[C@]1(C)C[C@@H](O)C[C@]21C`, for which the MIC was 4 µg/mL in assay [1]; 32 µg/mL in assay [2]; > 256 µg/mL in assay [3] (72 h, time 3 day); 32 µg/mL in assay [4].
Regarding `CC[C@H](O)[C@H](O)C[C@H](C)O`, the MIC in assay [1] is > 256 µg/mL; in assay [2], > 256 µg/mL; in assay [3] (72 h, time 3 day), 64 µg/mL; in assay [4], > 256 µg/mL.
On to `C/C=C/C[C@H](CO)[C@H](O)[C@H](C)O`, for which the MIC in assay [1] is > 256 µg/mL; in assay [2] it was > 256 µg/mL; in assay [3] (72 h, time 3 day), 64 µg/mL; in assay [4] it was > 256 µg/mL.
Turning to `C[C@]12CCC[C@@]1(C)[C@@H]1C[C@@]2(C)[C@H](O)C[C@@]1(O)CO`, the MIC in assay [1] was 2 µg/mL; in assay [2] it was 32 µg/mL; in assay [3] (72 h, time 3 day), > 256 µg/mL; in assay [4], 16 µg/mL.
Consider `NC[C@H]1O[C@H](O[C@H]2[C@H](O)[C@@H](O[C@H]3O[C@H](CO)[C@@H](O)[C@H](N)[C@H]3O)[C@H](N)C[C@@H]2N)[C@H](O)[C@@H](O)[C@@H]1O` [KANAMYCIN], for which the MIC in assay [1], in assay [2] and in assay [4] was 1 µg/mL in each case.

The record behind these values is ChEMBL document CHEMBL5120790, “Secondary Metabolites from Annulohypoxylon sp. and Structural Revision of Emericellins A and B” (2022).
